Experimental data taken from the supplement of paper PMC10307832.

What was measured:
Test in all cases: relative viability (nuclei count vs DMSO), 5 days (fraction); higher = more cells survive
[1] = compound: C1=CC2=NC=CN=C2C=C1/C=C/3\C(=O)NC(=O)S3 + C[C@@H](Oc1cc(-c2cnn(C3CCNCC3)c2)cnc1N)c1c(Cl)ccc(F)c1Cl [Crizotinib] (partner 1 µM)
Summary of the method: (§1)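 For relative viability, nuclei counts in treated wells were divided by those in vehicle wells. Lung cancer cell lines had been pin-tool dosed in 1536-well plates the day after seeding and cultured for 5 days, then fixed and stained in one step (final 0.05% Triton X-100, 1% formaldehyde, 1 ug/ml Hoechst) and imaged at 4×. Doses were one drug alone or a fixed anchor-drug dose plus five library-drug doses (not always all listed) in √10 steps, and values are duplicate-plate medians.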

[2] = compound: C1=CC2=NC=CN=C2C=C1/C=C/3\C(=O)NC(=O)S3 + CCNC(=O)c1noc(-c2cc(C(C)C)c(O)cc2O)c1-c1ccc(CN2CCOCC2)cc1 [Luminespib] (partner 0.01 µM)
Summary of the method: as §1

BGJ398 + OSI-027 = compound: CCN1CCN(c2ccc(Nc3cc(N(C)C(=O)Nc4c(Cl)c(OC)cc(OC)c4Cl)ncn3)cc2)CC1 [BGJ398] + COc1cccc2cc(-c3nc([C@H]4CC[C@H](C(=O)O)CC4)n4ncnc(N)c34)[nH]c12 [OSI-027] (partner 0.5 µM)
Summary of the method: as §1

[3] = compound: C1=CC2=NC=CN=C2C=C1/C=C/3\C(=O)NC(=O)S3 + Nc1nc2[nH]cc(CCc3ccc(C(=O)N[C@@H](CCC(=O)O)C(=O)O)cc3)c2c(=O)[nH]1 [Pemetrexed] (partner 0.2 µM)
Summary of the method: as §1

Row | Cell Line | relative viability ([1]; first compound 0.02 µM) | relative viability ([1]; first compound 0.06325 µM) | relative viability ([1]; first compound 0.2 µM) | relative viability ([1]; first compound 0.6325 µM) | relative viability ([1]; first compound 2 µM) | relative viability ([2]; first compound 0.02 µM) | relative viability ([2]; first compound 0.06325 µM) | relative viability ([2]; first compound 0.2 µM) | relative viability ([2]; first compound 0.6325 µM) | relative viability ([2]; first compound 2 µM) | relative viability (BGJ398 + OSI-027; first compound 0.01 µM) | relative viability (BGJ398 + OSI-027; first compound 0.03162 µM) | relative viability (BGJ398 + OSI-027; first compound 0.1 µM) | relative viability (BGJ398 + OSI-027; first compound 0.3162 µM) | relative viability (BGJ398 + OSI-027; first compound 1 µM) | relative viability ([3]; first compound 0.02 µM) | relative viability ([3]; first compound 0.06325 µM) | relative viability ([3]; first compound 0.2 µM) | relative viability ([3]; first compound 0.6325 µM) | relative viability ([3]; first compound 2 µM)
1 | NCI-H23 | 0.49 | 0.629 | 0.498 | 0.555 | 0.351 | 0.254 | 0.219 | 0.219 | 0.217 | 0.184 | 0.588 | 0.726 | 0.692 | 0.518 | 0.569 | 0.605 | 0.79 | 0.636 | 0.6 | 0.578
2 | NCI-H322M | 0.858 | 0.778 | 1.1 | 0.823 | 0.943 | 0.95 | 0.76 | 0.707 | 0.8 | 0.522 | 0.531 | 0.542 | 0.627 | 0.495 | 0.501 | 0.622 | 0.631 | 0.646 | 0.618 | 0.506
3 | NCI-H358 | 0.732 | 0.568 | 0.561 | 0.551 | 0.573 | 0.265 | 0.35 | 0.347 | 0.224 | 0.182 | 0.611 | 0.793 | 0.81 | 0.798 | 1 | 0.166 | 0.18 | 0.177 | 0.186 | 0.181
4 | NCI-H441 | 0.577 | 0.716 | 0.698 | 0.827 | 0.644 | 0.294 | 0.334 | 0.332 | 0.364 | 0.255 | 0.621 | 0.626 | 0.758 | 0.564 | 0.62 | 0.25 | 0.276 | 0.307 | 0.229 | 0.253
5 | NCI-H460 | 0.783 | 1.22 | 0.959 | 0.831 | 0.853 | 0.0317 | 0.0415 | 0.0283 | 0.0303 | 0.0362 | 0.63 | 0.733 | 0.81 | 0.642 | 0.719 | 0.0621 | 0.0629 | 0.071 | 0.058 | 0.0661
6 | NCI-H520 | 0.721 | 1.01 | 0.713 | 0.785 | 0.756 | 0.204 | 0.22 | 0.257 | 0.191 | 0.248 | 0.198 | 0.243 | 0.183 | 0.147 | 0.176 | 0.684 | 0.726 | 0.71 | 0.783 | 0.711
7 | NCI-H596 | 0.976 | 0.87 | 1.06 | 0.989 | 1 | 1.13 | 1.13 | 1.15 | 0.991 | 0.939 | 0.761 | 0.693 | 0.655 | 0.648 | 0.621 | 0.498 | 0.541 | 0.543 | 0.533 | 0.483
8 | NCI-H647 | 0.989 | 1.77 | 1.19 | 1.03 | 1 | 0.173 | 0.196 | 0.168 | 0.127 | 0.102 | 0.554 | 0.765 | 0.724 | 0.638 | 0.536 | 0.162 | 0.19 | 0.168 | 0.178 | 0.182
